Measured values as given in patent publication US20260144783A1, “COMPOSITION FOR PREVENTING OR TREATING PERIPHERAL NEUROPATHY, CONTAINING ISOQUINOLINE DERIVATIVE AS ACTIVE INGREDIENT” (ALTMEDICAL CO., LTD., priority 2022, published 2026).
Like-named read-outs stand apart in the source and are kept apart here.

Columns and labels:
[1] = system: BEAS-2B cell line, in which PINK1 was knocked down (shPINK1); assay: mitophagy activity in PINK1 knockdown cell line (FACS); format: cell-based, human; conditions: CCCP 10 μM or CD1-012 15 μM, 18 hours
Experimental: In this example, it was confirmed whether the mitophagy activation function of the isoquinoline derivative according to the present invention is dependent on the PINK1-Parkin pathway. To this end, after a BEAS-2B cell line, in which PINK1 was knocked down using short hairpin RNA (shRNA), was treated with CCCP (10 μM) of Comparative Example 1 or CD1-012 (15 μM) for 18 hours, the mitophagy activity of each sample was analyzed using flow cytometry (FACS).

[2] = system: mitochondrial reactive oxygen species (ROS); assay: MitoSOX assay; format: cell-based; conditions: CD1-012 10 μM or 15 μM, CCCP 10 μM, 24 hours
Experimental: (§1) It was confirmed whether the isoquinoline derivative according to the present invention induces mitochondrial dysfunction, similar to CCCP. To this end, the CD1-012 (10 μM or 15 μM) and CCCP (10 μM) were treated for 24 hours, and the mitochondrial membrane potential and mitochondrial reactive oxygen species (ROS) levels in each sample were analyzed. Mitochondrial membrane potential was analyzed using the TMRM (tetramethylrhodamine methyl ester) assay, and mitochondrial ROS levels were analyzed using the MitoSOX assay.

[3] = system: mitochondrial membrane potential; assay: TMRM assay; format: cell-based; conditions: CD1-012 10 μM or 15 μM, CCCP 10 μM, 24 hours
Experimental: as §1

[4] = system: Drosophila larvae; assay: larval size after treatment; format: in vivo
Experimental: In addition, to evaluate whether the compound according to the present invention affects the growth of Drosophila, the size of larvae was measured after treatment with paclitaxel and CD1-012.

[5] = system: BEAS-2B cell line; assay: autophagy activity, Keima fluorescent protein, confocal microscope; format: cell-based, human; conditions: 15 μM 18 h, BEAS-2B expressing Keima, FIG. 4B
Experimental: (§2) It was confirmed whether CD1-012 synthesized in Example 1 specifically increases only mitophagy activity. To this end, the BEAS-2B cell line expressing mt-Keima was treated with CD1-012 (15 μM) or Comparative Example 1 (CCCP, 10 μM) for 18 hours, and mitophagy activity was analyzed using a confocal microscope. Additionally, to measure autophagy activity, the BEAS-2B cell line expressing Keima fluorescent protein was incubated in Hanks' balanced salt solution (HBSS) for 3 hours to induce a starvation condition (starv.), and the results were compared with samples treated with CD1-012 (15 μM) for 18 hours using a confocal microscope.

[6] = system: SH-SY5Y cell line; assay: mitophagy activity, mt-Keima, flow cytometry (FACS); format: cell-based, human; conditions: SH-SY5Y expressing mt-Keima
Experimental: (§3) It was confirmed whether CD1-012 synthesized in Example 1 increases mitophagy activity in various cell lines. To this end, CD1-012 and Comparative Example 1 (CCCP) were treated in the SH-SY5Y cell line, a human neuroblastoma cell line expressing mt-Keima fluorescent protein, and in the HeLa-Parkin cell line, a HeLa cervical cancer cell line expressing Parkin (E3 ligase). Following this treatment, the mitophagy activity of each sample was analyzed using flow cytometry (FACS), and the results are shown in FIGS. 2A to 2B.

[7] = system: third-instar larvae of Drosophila (w1118); format: in vivo; conditions: for withdrawal latency: heat probe 40° C.
Experimental: To this end, thermal sensitivity was measured in a Drosophila model of paclitaxel-induced peripheral neuropathy. […] As a result, after treatment with paclitaxel, hyperalgesia was observed, as indicated by a 35% reduction in withdrawal latency from 6.9 seconds to 4.5 seconds (FIG. 8A). Subsequently, to confirm the therapeutic effect of CD1-012 on peripheral neuropathy, Drosophila were treated with CD1-012 at a concentration of 1 mM along with paclitaxel (20 μM).
(§4) Subsequently, to understand the molecular mechanism underlying the therapeutic effect of CD1-012 on chemotherapy-induced peripheral neuropathy, the therapeutic effect of CD1-012 was examined after suppressing the expression of ULK1 or Rap9, which are essential genes in the recently identified alternative mitophagy pathway. To this end, a heat probe assay was performed using a 40° C. thermal probe after co-treating paclitaxel (20 μM) and CD1-012 (1 mM) in Drosophila expressing shULK1 or shRap9 in C4da sensory neurons, as well as in control Drosophila (wild-type). As a result, in the control group, the peripheral neuropathy symptoms (reduction in withdrawal latency) induced by paclitaxel were recovered by CD1-012 treatment.

[8] = system: Drosophila expressing shULK1 in C4da sensory neurons; assay: heat probe assay, ULK1 suppressed; format: in vivo; conditions: ULK1 expression suppressed; paclitaxel 20 μM and CD1-012 1 mM
Experimental: as §4

[9] = system: BEAS-2B cell line; assay: mitophagy activity, mt-Keima fluorescent protein (FACS, confocal microscope, mito-YFP); format: cell-based, human
Experimental: To analyze the mitophagy-promoting activity effect of the CD1-012 synthesized in the Example 1, the BEAS-2B cell line, which is a human normal lung cell line, was induced to express the mt-Keima fluorescent protein. Following this, the CD1-012 (15 μM) and the compound of Comparative Example 1, CCCP (10 μM), were treated for 24 hours. After the treatment, the mitophagy activity of each sample was measured, and the results were represented in FIGS. 1A to IC.
Specifically, FIG. 1A represents the analysis results using flow cytometry (FACS) (treatment of CD1-012 at 15 µM for 24 hours), FIG. 1B represents the analysis results using a confocal microscope (treatment of CD1-012 at 15 μM for 18 hours), and FIG. 1C represents the measurement results of the quantitative changes in the mitochondria using a fluorescent protein, mito-YFP, which includes a targeting sequence to transport protein to the mitochondria (treatment of CD1-012 at 20 μM for 24 hours).
It was confirmed whether CD1-012 synthesized in Example 1 promotes mitophagy activity in a concentration- and time-dependent manner. To this end, the CD1-012 was treated at various concentrations or at a fixed concentration (15 μM) for different treatment durations in the BEAS-2B cell line expressing mt-Keima, and mitophagy activity was measured using a flow cytometer.
as §2
To this end, the human normal lung cell line BEAS-2B, expressing mt-Keima fluorescent protein, was treated with CD1-012, Comparative Example 2 (palmatine), or Comparative Example 3 (berberine) at various concentrations, and the mitophagy-inducing activity of each sample was compared.

[10] = system: HeLa-Parkin cell line; assay: mitophagy activity, flow cytometry (FACS); format: cell-based
Experimental: as §3

[11] = system: chemotherapy-induced peripheral neuropathy mouse model; assay: vonfrey hair test, peripheral neuropathy mouse model; format: in vivo; conditions: mice
Experimental: To more clearly verify the therapeutic effect of the isoquinoline derivative of the present invention on peripheral neuropathy, particularly chemotherapy-induced peripheral neuropathy, experiments were conducted using a peripheral neuropathy mouse model. Specifically, peripheral neuropathy was induced in mice by administration of a chemotherapeutic agent (paclitaxel), and CD1-012 was co-administered at a dose of 10 mg/kg or 20 mg/kg. Sensitivity to pain was then analyzed using the vonfrey hair test.

[12] = system: chemotherapy-induced peripheral neuropathy mouse model; assay: nerve distribution in the footpad (IENFs), peripheral neuropathy mouse model; format: in vivo
[13] = system: Drosophila expressing shATG7 in C4da sensory neurons; assay: heat probe assay, ATG7 suppressed; format: in vivo; conditions: ATG7 expression suppressed; paclitaxel 20 μM and CD1-012 1 mM, 40° C. probe
Experimental: (§5) In this example, an experiment was conducted to verify the therapeutic mechanism of the compound according to the present invention on peripheral neuropathy, particularly chemotherapy-induced peripheral neuropathy. To this end, the therapeutic effect of CD1-012 on peripheral neuropathy was evaluated using animal models in which the expression of ATG5 or ATG7, essential genes in the canonical mitophagy pathway, the most representative mitophagy regulatory pathway, was suppressed. Specifically, paclitaxel (20 μM) and CD1-012 (1 mM) were co-administered to Drosophila expressing shATG7 or shATG5 in C4da sensory neurons, as well as to control flies (wild-type), and a heat probe assay was conducted using a 40° C. thermal probe.

[14] = system: Drosophila expressing shATG5 in C4da sensory neurons; assay: heat probe assay, ATG5 suppressed; format: in vivo; conditions: ATG5 expression suppressed; paclitaxel 20 μM and CD1-012 1 mM, 40° C. probe
Experimental: as §5

[15] = system: C4da sensory neurons (ppk1a>CD4-tdTom Drosophila); assay: morphology of dendritic branches of C4da sensory neurons; format: in vivo
Text: To analyze the morphological changes in the dendritic branches of C4da sensory neurons, transgenic Drosophila expressing the fluorescent protein CD4-tdTomato specifically in C4da neurons (ppk^1a>CD4-tdTom) was generated. After treatment of the transgenic flies with paclitaxel and CD1-012, morphological changes in the dendritic branches of C4da sensory neurons were examined. As a result, treatment with paclitaxel increased the total dendrite length and the number of dendritic branches by 22% and 33%, respectively, confirming that morphological changes in the sensory neurons were induced.

[16] = system: Drosophila expressing shRap9 in C4da sensory neurons; assay: heat probe assay, Rap9 suppressed; format: in vivo; conditions: Rap9 expression suppressed; paclitaxel 20 μM and CD1-012 1 mM
Experimental: as §4

[17] = 15 μM, BEAS-2B mt-Keima, FIG. 3B
[18] = CD1-012 co-administered with paclitaxel
[19] = paclitaxel treatment, C4da sensory neurons

Structure (SMILES): N#CC(C#N)=NNc1cccc(Cl)c1 [CCCP, Carbonyl cyanide 3-chlorophenylhydrazone, reference compound]
- mitophagy activation in PINK1 knockdown cell line (shPINK1) compared to control [1]: significantly decreased
- mitochondrial ROS levels [2]: significantly increased
- mitochondrial membrane potential [3]: significantly reduced

Structure (SMILES): Oc1cc2c(cc1O)-c1cc3ccc(O)c(O)c3c[n+]1CC2 [CD1-012, 2,3,9,10-tetrahydroxy-5,6-dihydroisoquinolino[3,2-a]isoquinolin-7-ium bromide]
- reduction in larval size compared to the untreated control group ([4]; in vivo): ~10%
- mitophagy activation in PINK1 knockdown cell line (shPINK1) compared to control [1]: did not show a significant difference
- autophagy activity compared to the untreated control group [5]: no significant difference
- mitophagy activity compared to the control group (Con) [6]: significantly increased
- withdrawal latency as percent of the wild-type level ([7]; CD1-012 1 mM along with paclitaxel 20 μM): 91%
- withdrawal latency ([7]; CD1-012 1 mM along with paclitaxel 20 μM, paclitaxel alone 4.5 seconds): 6.3 s
- peripheral neuropathy symptoms (reduction in withdrawal latency) induced by paclitaxel ([7]; control Drosophila (wild-type), paclitaxel 20 μM and CD1-012 1 mM, 40° C. probe): recovered
- therapeutic effect on paclitaxel-induced peripheral neuropathy (withdrawal latency) [8]: completely abolished
- mitophagy activity compared with CCCP-treated sample (FIG. 1A, FACS) ([9]; 15 μM 24 h, CCCP 10 μM): increased as significantly as
- treatment time after which mitophagy activity began to significantly increase [9, 17]: 3 h
- treatment time at which mitophagy activity reached its maximum level [9, 17]: 18 h
- concentration at which mitophagy activity reached its maximum (comparable level) ([9]; BEAS-2B mt-Keima, FIG. 5): 10 µM
- mitophagy-inducing activity relative to berberine ([9]; BEAS-2B mt-Keima, FIG. 5): approximately 8 times
- mitophagy-inducing activity relative to palmatine ([9]; BEAS-2B mt-Keima, FIG. 5): approximately 40 times
- concentration at which mitophagy activity began to significantly increase compared to untreated control ([9]; BEAS-2B mt-Keima, flow cytometer, FIG. 3A): ≥ 7.5 µM
- mitophagy activity compared to the untreated control group (Con) ([9]; BEAS-2B mt-Keima, CD1-012 15 μM 24 h FACS, 15 μM 18 h confocal, 20 μM 24 h mito-YFP): significant increase
- mitophagy activity, concentration dependence ([9]; up to the maximum treatment concentration of 17.5 μM, FIG. 3A): continued to increase in a concentration-dependent manner
- mitophagy activity compared to the control group (Con) [10]: significantly increased
- hyperalgesic symptoms (sensitivity to pain) ([11]; CD1-012 10 mg/kg or 20 mg/kg co-administered with paclitaxel, FIG. 12A): significant improvement
- mitochondrial ROS levels [2]: no increase
- mitochondrial membrane potential [3]: no decrease
- number of peripheral nerves (intraepidermal nerve fibers: IENFs) in the footpad ([12]; mice treated with CD1-012 and paclitaxel, FIG. 12B): recovery to normal levels
- therapeutic effect on chemotherapy-induced peripheral neuropathy (withdrawal latency) [13]: similarly observed
- therapeutic effect on chemotherapy-induced peripheral neuropathy (withdrawal latency) [14]: similarly observed
- paclitaxel-induced increase in dendrite length [15, 18]: significantly suppressed
- paclitaxel-induced increase in number of branches [15, 18]: significantly suppressed
- therapeutic effect on paclitaxel-induced peripheral neuropathy (withdrawal latency) [16]: completely abolished

Structure (SMILES): COc1ccc2cc3[n+](cc2c1OC)CCc1cc2c(cc1-3)OCO2 [berberine, Berberine, reference compound]
- concentration at which mitophagy activity reached its maximum (comparable level) ([9]; BEAS-2B mt-Keima, FIG. 5): 80 µM

Structure (SMILES): CC(=O)O[C@H]1C(=O)[C@@]2(C)[C@H]([C@H](OC(=O)c3ccccc3)[C@]3(O)C[C@H](OC(=O)[C@H](O)[C@@H](NC(=O)c4ccccc4)c4ccccc4)C(C)=C1C3(C)C)[C@]1(OC(C)=O)CO[C@@H]1C[C@@H]2O [paclitaxel, reference compound]
- reduction in larval size compared to the untreated control group ([4]; Drosophila larvae, FIG. 8B): ~28%
- reduction in withdrawal latency ([7]; paclitaxel 20 μM 48 hours alone, from 6.9 seconds to 4.5 seconds): 35%
- withdrawal latency ([7]; paclitaxel 20 μM 48 hours alone, untreated 6.9 seconds): 4.5 s
- pain sensitivity ([11]; paclitaxel alone): increased
- number of peripheral nerves (intraepidermal nerve fibers: IENFs) in the footpad ([12]; mice, paclitaxel alone): reduced
- increase in number of dendritic branches [15, 19]: 33%
- increase in total dendrite length [15, 19]: 22%

Structure (SMILES): COc1cc2c(cc1OC)-c1cc3ccc(OC)c(OC)c3c[n+]1CC2 [palmatine, Palmatine, reference compound]
- concentration at which mitophagy activity reached its maximum (comparable level) ([9]; BEAS-2B mt-Keima, FIG. 5): 400 µM
